# System: PPARγ target genes
# Assay: PPARγ target gene expression (real-time qPCR) in adipose tissue, pial arteries and PA, NP Sprague Dawley rats
# Format: in vivo, rat
# Description: Animals and Treatment Groups: All procedures were approved by the Institutional Animal Care and Use Committee and conducted in accordance with the National Institutes of Health Guide for the Care and Use of Laboratory Animals. Female virgin NP Sprague Dawley rats (250-300 g, 14-16 weeks, Charles River, Canada) were used for all experiments and housed in the University of Vermont Animal Care Facility. Animals were randomly selected and grouped as untreated (N=4), treated with recombinant human relaxin-2 (relaxin, 4 μg/hr; N=14), relaxin plus a specific PPARγ inhibitor GW9662 (10 mg/kg daily in food; N=8), or vehicle (20 mM sodium acetate; N=14) for 10 days through osmotic minipumps (Alzet 2ML2, Durect Corp., Cupertino, Calif., USA). GW9662 treatment was started 1 day before and for the duration of relaxin treatment to ensure PPARγ was inhibited. Animals were anesthetized with 3% isoflurane and minipumps implanted subcutaneously in the back of the neck. All animals received post-surgical analgesic (buprenorphine, 50 μg/kg, s.c.). Relaxin infusion was continuous for 10 days until animals were euthanized for vessel experiments and tissue collection. The minipumps used were capable of delivering relaxin for 14 days and thus tissue collection was within this duration.
# Determination of RXFP1 and PPARγ Target Gene Expression: MCA and PA from 4 untreated rats were collected to determine expression level of RXFP1, the primary relaxin receptor, using real-time qPCR methods. We also collected adipose tissue, pial arteries, and PA from vehicle, relaxin and relaxin+GW9662 groups (n=6 for each group) for determination of PPARγ target gene expression. All collected samples were stored in RNase inhibitor (1 unit/μl, RiboLock, Fermentas, Glen Burnie, Md., USA) at −80° C. for comparing expression of fatty acid translocase (FAT)/CD36 and liver X receptors-α (LXRα) for adipose tissue, and plasminogen activator inhibitor-1 (PAI-1) for vasculature. Standard techniques for real-time qPCR were performed by the Vermont Cancer Center DNA analysis facility at the University of Vermont, as described previously Cipolla et al. (2009) Stroke 40, 1451-1457. Briefly, RNA was extracted from tissues and concentration and integrity was determined by a NanoDrop ND-1000 Spectrophotometer (Wilmington, Del.) and an Agilent 2100 Bioanalyzer (Santa Clara, Calif., USA), respectively. Samples with low RNA quality were excluded. cDNA was then made by a SuperScript III Kit (Invitrogen, Carlsbad, Calif., USA). Real-time qPCR was set up as follows: 10 μL Universal PCR Master Mix (Applied Biosystems, Foster City, Calif., USA), 1 μL Assay on Demand (Applied Biosystems), 8 μL water, and 1 μL cDNA. β2-microglobulin (B2M, housekeeping control) and target genes were assessed using Assays on Demand from Applied Biosystems. […] Primers were designed across an exon-exon junction to avoid detecting genomic DNA. Thus, no DNase treatment of samples was necessary. All samples were run in duplicates using a 7900HT Sequence Detection System (Applied Biosystems). […]
# Data Calculations and Statistical Analysis: Percent tone was calculated as percent decrease in ID from the passive diameter at each intravascular pressure: [1−(IDactive/IDpassive)]×100%. Outer diameter (OD) was calculated from measured ID and WT: ID+2WT. Cross-sectional area (CSA) of the wall was calculated as: [(OD/2)2−(ID/2)2]×π. Data from qPCR study were analyzed using the −2^ΔΔCT method, as described previously Livak et al. (2001) Methods 25, 402-408. […]
substance,measurement,setting,value
relaxin,Gene expression of CD36 in adipose tissue,"relaxin vs vehicle, NP rats",decreased
same,PAI-1 expression in pial arteries,"relaxin vs vehicle, NP rats",did not significantly change
same,PAI-1 expression in PA,"relaxin vs vehicle, NP rats, low sample numbers",did not significantly change
same,Gene expression of LXR-α in adipose tissue,"similar trend as CD36 (decrease with relaxin, normalized by GW9662)",not statistically significant

# From patent publication US9393288B2, “Methods of treating diseases associated with PPARγ” (The University of Vermont and State Agricultural College, priority 2012, dated 2016)
